Results taken from patent US20180010188A1, “METHOD FOR DETECTING NONSENSE-MEDIATED RNA DECAY” (The Regents of the University of California, priority 2016, published 2018).
Entries after “also recorded” stand apart in the source; their conditions may differ.

Columns and labels:
[1] = tested on: NMD and non-NMD isoforms of Srsf11, Ptbp2, Tra2b, Hnrnpl and Psd-95 (cellular NMD activity); assay: RT-qPCR of endogenous NMD and non-NMD isoforms to monitor cellular NMD activity; format: cell-based, mouse
Source text: In our method, we measure the individual abundance of NMD-sensitive isoforms and that of their non-NMD counterparts via quantitative real-time PCR (qPCR). The NMD isoforms are first examined for differential expression between a treatment and a control condition. An increase in a NMD isoform may be due to NMD inhibition, transcriptional activation or a change in alternative splicing favoring the NMD isoform. These three scenarios can be distinguished by examining the expression of the non-NMD counterparts. Genuine NMD regulation, transcriptional activation and alternative splicing regulation would lead to no change, upregulation and down-regulation of the NMD-insensitive isoforms, respectively (FIG. 6A).
One technical difficulty of our method is designing RT-qPCR primers specific to the cassette exon-skipping isoform, whose entire sequence is contained in the inclusion isoform. To specifically detect an inclusion isoform, we designed a primer entirely annealing to the cassette exon (exon B in FIG. 1A). For the exclusion isoform, junction primers annealing to the exon-skipping junction appear to be the only choices. This can be either a reverse primer (FIG. 1A) with its 5′ portion matching the downstream constitutive exon (exon C) and its 3′ portion matching the upstream constitutive exon (exon A) or a forward primer (not shown) with its 5′ and 3′ portions matching the upstream and downstream exons, respectively. The challenge is herein illustrated with reverse primers but also applies to forward primers. Many exon-skipping junction primers are able to amplify the inclusion isoforms (FIGS. 7A-D). The longer the 3′ portion of the junction primer annealing to the upstream constitutive exon, the easier the primer amplifies the inclusion transcripts (FIG. 7B). Some exon-skipping junction primers with 3′ portions as short as six nucleotides, as we've observed, can still anneal to and detect the inclusion isoform at 55-60° C., albeit at a lower efficiency than its detection of the exclusion isoform. On the other hand, a longer 5′ portion and a shorter 3′ portion increase the possibility of the primer annealing to the exon B-exon C junction because of the sequence similarity around 5′ splice sites (FIGS. 7C-D). We therefore had to identify NMD-associated cassette exons containing a 3′ end unlike that of its upstream exon. We then screened multiple exon-skipping junction primers for one that amplified only the exclusion isoform and not the inclusion isoform. All primer pairs were tested and confirmed for their specificity, RT-qPCR efficiency and linear dynamic ranges (FIG. 10). Finally, two stably expressed housekeeping genes, Gapdh and Sdha, were used as internal controls for normalization by geometric averaging (Vandesompele et al., 2002. Genome Biol 3: RESEARCH0034).
Because our method can be used on its own can to infer NMD regulation with a low false positive rate, one of its applications is unbiased screening for changes in cellular NMD activity. We screened a small panel of widely used pharmacological inhibitors for their effects on NMD. The expression of both the NMD and non-NMD isoforms of Ptbp2, Srsf11, Tra2b, Hnrnpl and Psd-95 were simultaneously measured before and after drug treatment. When the levels of all of the NMD isoforms were altered by a chemical in the same direction, the expression of the NMD and non-NMD isoforms under the treatment and control conditions was then subjected to ANOVA analysis to determine differential regulation of the two isoforms. We were interested in drugs that affected the NMD isoforms across the board and more strongly than the non-NMD counterparts. With this criterion, we identified thapsigargin as having potent activity in blocking cellular NMD.
Neuro-2a (N2a) cells were maintained in N2a complete media consisting of L-glutamine-free Dulbecco's modified Eagle's medium (DMEM), 10% FBS and 1× GlutaMAX at 37° C. […]

[2] = tested on: immediate early genes c-fos, c-Jun and Pip92; assay: RT-qPCR of immediate early genes; format: cell-based, mouse
Source text: We then examined whether an increase in intracellular Ca^2+ is sufficient to inhibit NMD. We applied a wide dose range of ouabain, a cardiac glycoside used by Nickless et al., and measured the abundance of both NMD and non-NMD isoforms at various time-points. […] To further test whether increased intracellular Ca^2+ was sufficient to inhibit NMD, we treated the cells with ionomycin, a Ca^2+ ionophore, as another method of raising the cytoplasmic Ca^2+ concentration.
Neuro-2a (N2a) cells were maintained in N2a complete media consisting of L-glutamine-free Dulbecco's modified Eagle's medium (DMEM), 10% FBS and 1× GlutaMAX at 37° C. Thapsigargin (VWR, cat. no. 89161-410), ionomycin (Fisher Scientific, cat. no. AG-CN2-0416-M001) and ouabain octahydrate (Fisher Scientific, cat. no. 80055-364) were dissolved in DMSO and stored at −80° C. For the application of these chemicals, 750,000 cells were plated on 35 mm BioLite TC plates and incubated with 2 ml of N2a complete media overnight before treatment with the drugs at the indicated concentrations. […]
Trizol (Life Technologies, cat. no. 15596-018) was directly added to the cells or mouse brain tissues to extract total RNA following the Trizol Reagent standard protocol. […] RNA concentrations were measured using a Nanodrop 2000c (Thermo Fisher). […] Relative expression (fold changes) was calculated using the ΔΔCt method. […]

Compound	levels of the NMD isoforms ([1]; 1 to 100 μM)	expression of immediately early genes c-Jun and Pip92 ([2]; ionomycin treatment)	NMD isoforms at high concentration ([1]; 200 or 400 μM)	changes in cellular NMD activity ([1]; wide dose range, various time-points, N2a cells)	immediate early genes c-fos and Pip92 ([2]; 200 or 400 μM, N2a cells)
C[C@H](CCC(=O)O)C[C@H](C)C[C@H](C)C(=O)/C=C(\O)[C@H](C)C[C@H](C)C/C=C/[C@@H](C)[C@@H](O)[C@@H](C)[C@@H](O)C[C@@H]1CC[C@@](C)([C@H]2CC[C@@](C)([C@@H](C)O)O2)O1 [ionomycin]	did not alter	increased expression			
C[C@@H]1O[C@@H](O[C@H]2C[C@@H](O)[C@]3(CO)[C@H]4[C@H](O)C[C@]5(C)[C@@H](C6=CC(=O)OC6)CC[C@]5(O)[C@@H]4CC[C@]3(O)C2)[C@H](O)[C@H](O)[C@H]1O [ouabain]			not substantially enhanced	only minimal changes; also recorded: did not unequivocally affect NMD activity	clearly stimulated; also recorded: clearly induced
